Experimental findings from PMC8430323, “Microbial Enzymatic Synthesis of Amikacin Analogs With Antibacterial Activity Against Multidrug-Resistant Pathogens” (Frontiers in Microbiology, 2021) are described below.

One assay concerns the target T1, AAC(6′)-APH(2^″) (Staphylococcus aureus, UniProt P0A0C1).
T1 construct: gene aacA-aphD; codon-optimized synthetic gene in pET15b, His-tagged, expressed in E. coli BL21(DE3), Ni-NTA purified; bifunctional enzyme
Kind of assay: UPLC-qTOF-HR-MS of […]'-N-acylation product, structure confirmed by NMR. The format is biochemical. To be noted: acyl donor; one-pot with GenN, amikacin 2 mM, SAM 2 mM, 50 mM Tris-HCl pH 7.5, 30 °C, 12 h, enzyme 500 μM.

Another assay addresses T2, GenN (Micromonospora echinospora, UniProt Q2MG72).
T2 construct: codon-optimized synthetic gene in pJExpress404, His-tagged, expressed in E. coli BL21(DE3), Ni-NTA purified
T2 sequence (Q2MG72 1-321): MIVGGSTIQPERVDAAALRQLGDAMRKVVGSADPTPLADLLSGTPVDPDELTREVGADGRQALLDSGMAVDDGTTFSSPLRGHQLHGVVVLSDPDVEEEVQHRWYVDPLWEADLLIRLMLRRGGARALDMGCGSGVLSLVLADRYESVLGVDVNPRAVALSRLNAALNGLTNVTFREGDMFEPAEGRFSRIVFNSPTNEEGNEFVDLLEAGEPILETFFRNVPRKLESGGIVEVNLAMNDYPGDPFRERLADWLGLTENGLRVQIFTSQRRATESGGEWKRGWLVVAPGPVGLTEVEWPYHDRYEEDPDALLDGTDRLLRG
Nature of the assay: UPLC-qTOF-HR-MS of methylation product, structure confirmed by NMR. The format is biochemical. The note with it: SAM 2 mM, amikacin 2 mM, 50 mM Tris-HCl pH 7.5, 30 °C, 12 h, enzyme 500 μM.

Molecules are shown by their SMILES.

T1 sequence (P0A0C1 whole entry): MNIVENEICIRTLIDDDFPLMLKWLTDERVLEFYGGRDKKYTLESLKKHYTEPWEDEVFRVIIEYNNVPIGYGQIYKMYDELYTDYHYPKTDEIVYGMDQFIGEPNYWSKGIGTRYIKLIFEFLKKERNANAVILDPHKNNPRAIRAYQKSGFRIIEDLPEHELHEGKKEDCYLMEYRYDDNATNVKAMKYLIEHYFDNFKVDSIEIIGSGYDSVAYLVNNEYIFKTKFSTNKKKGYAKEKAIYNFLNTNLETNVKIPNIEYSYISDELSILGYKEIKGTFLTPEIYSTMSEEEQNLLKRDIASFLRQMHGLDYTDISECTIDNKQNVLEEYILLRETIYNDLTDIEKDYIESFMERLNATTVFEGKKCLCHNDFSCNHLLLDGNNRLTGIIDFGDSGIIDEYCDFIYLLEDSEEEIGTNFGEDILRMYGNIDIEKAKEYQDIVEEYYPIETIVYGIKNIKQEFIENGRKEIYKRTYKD

Turning to `CC(=O)SCCNC(=O)CCNC(=O)[C@H](O)C(C)(C)COP(=O)(O)OP(=O)(O)OC[C@H]1O[C@@H](n2cnc3c(N)ncnc32)[C@H](O)[C@@H]1OP(=O)(O)O` [acetyl-CoA], the conversion yield result on AAC(6′)-APH(2^″) is “Incubation with acetyl-CoA and propionyl-CoA as cosubstrates led to the formation of new UPLC peaks”.

Take `NCC[C@H](O)C(=O)N[C@@H]1C[C@H](N)[C@@H](O[C@H]2O[C@H](CN)[C@@H](O)[C@H](O)[C@H]2O)[C@H](O)[C@H]1O[C@H]1O[C@H](CO)[C@@H](O)[C@H](N)[C@H]1O` [amikacin]: on GenN, the conversion yield result is “Amikacin was an excellent substrate for SAM-dependent methylation by GenN”.

On to `CCC(=O)SCCNC(=O)CCNC(=O)[C@H](O)C(C)(C)COP(=O)(O)OP(=O)(O)OC[C@H]1O[C@@H](n2cnc3c(N)ncnc32)[C@H](O)[C@@H]1OP(=O)(O)O` [propionyl-CoA], for which, at AAC(6′)-APH(2^″), the conversion yield result was “Incubation with acetyl-CoA and propionyl-CoA as cosubstrates led to the formation of new UPLC peaks”.
